Measurements as given in US20160138049A1, “OXYGEN-TOLERANT CoA-ACETYLATING [sequence] DEHYDROGENASE CONTAINING PATHWAY FOR BIOFUEL PRODUCTION” (The Regents of the University of California, priority 2013, published 2016).
Read-outs that look alike come from different tables or passages of the source.

Columns and labels:
[1] = target: Porphyromonas gingivalis PduP, CoA-acylating propionaldehyde dehydrogenase (PduP_P.gin, YP_001928839, SEQ ID NO:51 and 52), poly-His6 tagged (Porphyromonas gingivalis, UniProt B2RIP7); test: Kinetic parameters of PduP (CoA-acylating aldehyde dehydrogenase), NADH depletion at 340 nm; settings: pH 7.15, 30° C., 500 μM NADH, 1 mM DTT, acyl-CoA 0.03 mM to 2 mM
Method: (§1) Protein purification was done by using His-Spin Protein miniprep purification kit from Zymo following manufacturer's manual. Overnight culture of E. coli strain BL-21(DE3) harboring different pCDF-pdup plasmid was used to inoculate fresh 20 ml LB. The newly inoculated culture was incubated at 37° C. until OD600 nm reaches 0.6 which was then induced with 1 mM IPTG. The induced cultures were then incubated overnight in 30° C. rotary shaker to allow protein expression. The cultures were then harvested by centrifugation at 4,300×g for 20 min. The pellet was then resuspended with 1 mL of Zymo His-binding buffer and mixed with 1 mL of 0.1 mm glass beads (Biospec). The sample was then homogenated using TissueLyser II (Quiagen).
(§2) Enzyme assays were conducted by using Bio-Tek PowerWave XS microplate spectrophotometer. CoA-acylating aldehyde dehydrogenase activity was measured by the decrease of absorbance at 340 nm, corresponding to depletion of NADH. […] For determining specific activity for other chain length acyl-CoA, 500 μM was used. The mixture excluding acyl-CoA was incubated for 5 minutes at 30° C. The addition of the acyl-CoA initiated the reaction. kcat and Km were determined by nonlinear regression fitting to Michaelis-Menten equation using graphing software Origin.
(§3) To characterize these PduP homologues, plasmids harboring individual pduP genes were constructed with a poly-His6 tag (plasmids pCDF-pduP_ahyd, pCDF-pdup_kpne, pCDF-pdup_lbre, pCDF-pdup_lmon, pCDF-pdup_sent, and pCDF-pdup_pgin). PduP homologues were then purified under aerobic condition without cleaving off His tags. The activities of the enzymes were determined using acyl-CoA with different chain lengths, and the disappearance of NADH was monitored.
(§4) The efficiency of these PduP homologues were assessed.

[2] = target: Salmonella enterica PduP, CoA-acylating propionaldehyde dehydrogenase (PduP_S.ent, AAD39015, SEQ ID NO:33 and 34), poly-His6 tagged (Salmonella enterica, UniProt Q9XDN1); test: as above; settings: pH 7.15, 30° C., 500 μM NADH, 1 mM DTT, acyl-CoA 0.03 mM to 2 mM
Method: as §1, §2, §3, §4

[3] = target: Listeria monocytigenes PduP, CoA-acylating propionaldehyde dehydrogenase (PduP_L.mon, NP_464690, SEQ ID NO:49 and 50), poly-His6 tagged (Listeria monocytogenes, UniProt Q8Y7V4); test: as above; settings: pH 7.15, 30° C., 500 μM NADH, 1 mM DTT, acyl-CoA 0.03 mM to 2 mM
Method: as §1, §2, §3, §4

[4] = target: Klebsiella pneumoniae PduP, CoA-acylating propionaldehyde dehydrogenase (PduP_K.pne, YP_001336844, SEQ ID NO:45 and 46), poly-His6 tagged (Klebsiella pneumoniae, UniProt A0ACD7U6D7); test: as above; settings: pH 7.15, 30° C., 500 μM NADH, 1 mM DTT, acyl-CoA 0.03 mM to 2 mM
Method: as §1, §2, §3, §4

[5] = target: T1, Lactobacillus brevis PduP, CoA-acylating propionaldehyde dehydrogenase (PduP_L.bre, YP_795711, SEQ ID NO:47 and 48), poly-His6 tagged (Levilactobacillus brevis, UniProt Q03Q42); test: as above; format: biochemical; settings: pH 7.15, 30° C., 500 μM NADH, 1 mM DTT, acyl-CoA 0.03 mM to 2 mM
T1 sequence (Q03Q42 1-477): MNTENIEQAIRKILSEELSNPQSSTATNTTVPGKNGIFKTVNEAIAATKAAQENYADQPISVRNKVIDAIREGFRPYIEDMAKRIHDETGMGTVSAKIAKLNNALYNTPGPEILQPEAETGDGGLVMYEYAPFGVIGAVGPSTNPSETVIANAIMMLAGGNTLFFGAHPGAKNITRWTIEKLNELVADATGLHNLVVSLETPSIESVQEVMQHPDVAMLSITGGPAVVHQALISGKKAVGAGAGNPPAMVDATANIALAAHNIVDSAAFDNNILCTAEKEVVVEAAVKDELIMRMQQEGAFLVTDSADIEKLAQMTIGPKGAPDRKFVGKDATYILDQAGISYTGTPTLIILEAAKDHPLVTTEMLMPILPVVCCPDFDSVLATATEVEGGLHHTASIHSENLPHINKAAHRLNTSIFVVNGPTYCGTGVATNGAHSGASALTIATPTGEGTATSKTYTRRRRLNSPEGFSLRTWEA
Method: as §1, §2, §3, §4

[6] = tested on: S. elongatus strain BUOH-SE
Method: S. elongatus PCC7942 cells were grown according to the procedure in “culture medium and condition”. Once growth reached OD730 about 2, the culture was diluted to OD730 of 0.1 with 50 mL fresh BG11 medium containing 50 mM NaHCO3 and appropriate antibiotics. Then, various amounts of n-butanol were added into the culture to achieve the desired concentration (0, 250, 500, 750, and 1000 mg/L). Growth was measured daily. Every two days, 5 mL of culture was removed and 5 mL fresh BG-11 containing 500 mM NaHCO3, appropriate amounts of antibiotics and n-butanol was added back to the culture to ensure sufficient carbon supply.

[7] = tested on: S. elongatus strain BUOH-SE; test: n-Butanol toxicity test (growth); format: cell-based, Synechococcus elongatus PCC 7942
Method: Growth was measured daily.

[8] = CoA-acylating aldehyde dehydrogenase (PduP) assay, butyryl-CoA reduction; format: biochemical; settings: purified under aerobic condition; 500 μM NADH, 1 mM DTT, pH 7.15, 30° C.
Method: as §1, §2, §3, §4

[9] = Substrate chain length specificity of PduP; format: biochemical; settings: acyl-CoA chain lengths C2 to C12
Method: FIG. 3A-B Substrate chain length specificity of CoA-acylating aldehyde dehydrogenases, PduP. A) Specific activity of different PduP (pmol min^−1 mg^−1). B) Relative activity of PduP. Specific activity was determined with substrate concentration of 1 mM acyl-CoA, 500 uM NADH, 1 mM DTT in 50 mM potassium phosphate buffer at pH 7.15 at 30° C.
as §2, §3

[10] = substrate: CC(=O)SCCNC(=O)CCNC(=O)[C@H](O)C(C)(C)COP(=O)(O)OP(=O)(O)OC[C@H]1O[C@@H](n2cnc3c(N)ncnc32)[C@H](O)[C@@H]1OP(=O)(O)O; test: purified protein, by the assay type; settings: other: pH 7.15, 30° C., 500 μM NADH, 1 mM DTT, acyl-CoA 0.03 mM to 2 mM
[11] = substrate: CCCC(=O)SCCNC(=O)CCNC(=O)[C@H](O)C(C)(C)COP(=O)(O)OP(=O)(O)OC[C@H]1O[C@@H](n2cnc3c(N)ncnc32)[C@H](O)[C@@H]1OP(=O)(O)O; test: purified protein, by the assay type; settings: other: pH 7.15, 30° C., 500 μM NADH, 1 mM DTT, acyl-CoA 0.03 mM to 2 mM
E. coli strain JCL166 = test: E. coli anaerobic growth rescue with PduP and n-butanol pathway; format: cell-based; settings: GC of culture medium
Method: Cells of E. coli strain JCL166 and its derivatives were cultured overnight in LB with appropriate antibiotics at 37° C. Overnight cultures (3 μL) were used to inoculate 3 mL of fresh LB media supplemented with 1% glucose and appropriate antibiotics (100 μg/mL ampicillin and 50 μg/mL kanamycin) and 0.1 mM IPTG in 10 mL BD vacutainers. A needle with Millipore PES filter was used to pierce through the rubber cap of the culture. The headspace of these cultures was then purged several times with 95% N2/5% H2 gas using an anaerobic chamber (Coy Lab Products, Grass Lake, Mich.). The needle with filter was removed in anaerobic chamber. These anaerobic cultures were then taken out of anaerobic chamber and incubated in 37° C. rotary shaker. Culture was analyzed 24 hours later for cell density and alcohol content measurement.
These PduP homologues were tested for n-butanol production utilizing an anaerobic growth rescue assay. E. coli strain JCL 166 (ΔadhE, ΔldhA, ΔfrdB) contains gene knock-outs for mixed acid fermentation. Fermentation pathways are essential for E. coli to recycle NADH back into to NAD^+ for the Embden-Meyerhof-Parnas pathway to continue (FIG. 2A). […] The culture medium of these anaerobically grown cultures were analyzed for alcohol production (FIG. 2C) using gas chromatography (GC).

Chain of Listeria monocytigenes PduP, CoA-acylating propionaldehyde dehydrogenase (PduP_L.mon, NP_464690, SEQ ID NO:49 and 50), poly-His6 tagged (Q8Y7V4 entry or part of it): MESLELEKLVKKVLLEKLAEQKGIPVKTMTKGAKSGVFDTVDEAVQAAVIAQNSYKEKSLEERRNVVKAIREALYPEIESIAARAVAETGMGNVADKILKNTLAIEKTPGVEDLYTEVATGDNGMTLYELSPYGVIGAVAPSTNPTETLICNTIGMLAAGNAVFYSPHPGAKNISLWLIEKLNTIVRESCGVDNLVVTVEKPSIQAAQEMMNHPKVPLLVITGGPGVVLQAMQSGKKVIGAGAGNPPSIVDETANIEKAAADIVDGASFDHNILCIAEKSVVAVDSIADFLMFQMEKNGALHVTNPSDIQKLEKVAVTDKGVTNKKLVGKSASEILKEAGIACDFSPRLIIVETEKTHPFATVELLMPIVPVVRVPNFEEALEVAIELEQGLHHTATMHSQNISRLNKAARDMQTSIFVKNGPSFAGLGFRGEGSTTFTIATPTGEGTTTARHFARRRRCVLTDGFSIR
Chain of Salmonella enterica PduP, CoA-acylating propionaldehyde dehydrogenase (PduP_S.ent, AAD39015, SEQ ID NO:33 and 34), poly-His6 tagged (Q9XDN1 whole entry): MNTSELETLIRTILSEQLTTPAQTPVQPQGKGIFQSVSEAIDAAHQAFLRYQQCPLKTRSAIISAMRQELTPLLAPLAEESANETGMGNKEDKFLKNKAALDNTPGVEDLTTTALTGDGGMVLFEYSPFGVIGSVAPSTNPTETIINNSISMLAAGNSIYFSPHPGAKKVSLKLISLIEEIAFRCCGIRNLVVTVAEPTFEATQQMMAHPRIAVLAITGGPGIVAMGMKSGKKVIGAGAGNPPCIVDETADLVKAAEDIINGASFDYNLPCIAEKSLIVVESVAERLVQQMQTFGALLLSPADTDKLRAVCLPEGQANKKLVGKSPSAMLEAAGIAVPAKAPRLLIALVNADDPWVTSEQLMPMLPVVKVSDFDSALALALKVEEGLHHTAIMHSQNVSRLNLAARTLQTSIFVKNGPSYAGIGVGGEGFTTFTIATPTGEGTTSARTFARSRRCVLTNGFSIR
Chain of Porphyromonas gingivalis PduP, CoA-acylating propionaldehyde dehydrogenase (PduP_P.gin, YP_001928839, SEQ ID NO:51 and 52), poly-His6 tagged (B2RIP7 entry or part of it): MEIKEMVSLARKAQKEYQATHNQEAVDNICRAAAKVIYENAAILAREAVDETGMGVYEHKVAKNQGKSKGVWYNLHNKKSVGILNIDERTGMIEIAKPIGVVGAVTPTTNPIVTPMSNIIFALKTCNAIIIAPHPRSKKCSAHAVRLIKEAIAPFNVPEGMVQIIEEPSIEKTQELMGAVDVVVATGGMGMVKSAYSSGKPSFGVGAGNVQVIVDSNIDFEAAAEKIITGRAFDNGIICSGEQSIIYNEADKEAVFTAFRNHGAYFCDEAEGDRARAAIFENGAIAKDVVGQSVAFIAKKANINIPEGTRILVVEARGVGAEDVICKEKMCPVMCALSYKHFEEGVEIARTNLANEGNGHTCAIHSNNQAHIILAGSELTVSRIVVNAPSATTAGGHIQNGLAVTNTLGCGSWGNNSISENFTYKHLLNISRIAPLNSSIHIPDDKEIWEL

## CC(=O)SCCNC(=O)CCNC(=O)[C@H](O)C(C)(C)COP(=O)(O)OP(=O)(O)OC[C@H]1O[C@@H](n2cnc3c(N)ncnc32)[C@H](O)[C@@H]1OP(=O)(O)O [Acetyl-CoA, acetyl-CoA]
[1]
  kcat: 0.08 ± 0.01 s⁻¹
[2]
  kcat: 14.81 ± 1.00 s⁻¹
[3]
  kcat: 11.33 ± 0.97 s⁻¹
[4]
  kcat: 4.63 ± 0.19 s⁻¹
[5]
  kcat: 0.26 ± 0.10 s⁻¹

## CCCCO [n-butanol]
[6]; 750 mg/L of n-butanol in culture medium
  growth of S. elongatus strain BUOH-SE: visible growth retardation
[6]; 1 g/L of n-butanol
  growth of S. elongatus strain BUOH-SE: cell growth is inhibited
[7]; 750 mg/L n-butanol in culture medium
  growth of S. elongatus strain BUOH-SE: visible growth retardation
[7]; 1 g/L n-butanol
  growth of S. elongatus strain BUOH-SE: cell growth is inhibited

B1: Lactobacillus brevis PduP, CoA-acylating propionaldehyde dehydrogenase (PduP_L.bre, YP_795711, SEQ ID NO:47 and 48), poly-His6 tagged (Levilactobacillus brevis … (protein)
chain: MNTENIEQAIRKILSEELSNPQSSTATNTTVPGKNGIFKTVNEAIAATKAAQENYADQPISVRNKVIDAIREGFRPYIEDMAKRIHDETGMGTVSAKIAKLNNALYNTPGPEILQPEAETGDGGLVMYEYAPFGVIGAVGPSTNPSETVIANAIMMLAGGNTLFFGAHPGAKNITRWTIEKLNELVADATGLHNLVVSLETPSIESVQEVMQHPDVAMLSITGGPAVVHQALISGKKAVGAGAGNPPAMVDATANIALAAHNIVDSAAFDNNILCTAEKEVVVEAAVKDELIMRMQQEGAFLVTDSADIEKLAQMTIGPKGAPDRKFVGKDATYILDQAGISYTGTPTLIILEAAKDHPLVTTEMLMPILPVVCCPDFDSVLATATEVEGGLHHTASIHSENLPHINKAAHRLNTSIFVVNGPTYCGTGVATNGAHSGASALTIATPTGEGTATSKTYTRRRRLNSPEGFSLRTWEA
[8]
  Specific activity for butyryl-CoA reduction: 2.5 ± 0.2 µmol/min/mg
[9]
  Acyl-CoA substrate favoured (highest specific activity): hexanoyl-CoA
[10]
  Km: 76.0 ± 38.2 µM
[11]
  Km: 534.3 ± 59.8 µM
E. coli strain JCL166
  Alcohol production from the growth rescue broth, n-butanol versus ethanol: more n-butanol than ethanol

B2: K. pne: PduP homologue from Klebsiella pneumoniae, YP_001336844; SEQ ID NO:45 and 46 (protein, listed as Klebsiella pneumoniae)
chain: MNTAELETLIRTILSEKLAPTPPAPQQEQGIFCDVGSAIDAAHQAFLRYQQCPLKTRSAIISALRETLAPELATLAEESATETGMGNKEDKYLKNKAALENTPGIEDLTTSALTGDGGMVLFEYSPFGVIGAVAPSTNPTETIINNSISMLAAGNSVYFSPHPGAKKVSLKLIARIEEIAYRCSGIRNLVVTVAEPTFEATQQMMSHPLIAVLAITGGPGIVAMGMKSGKKVIGAGAGNPPCIVDETADLVKAAEDIISGAAFDYNLPCIAEKSLIVVASVADRLIQQMQDFDALLLSRQEADTLRAVCLPDGAANKKLVGKSPAALLAAAGLAVPPRPPRLLIAEVEANAPWVTCEQLMPVLPIVRVADFDSALALALRVEEGLHHTAIMHSQNVSRLNLAARTLQTSIFVKNGPSYAGIGVGGEGFTTFTIATPTGEGTTSARTFARLRRCVLTNGFSIR
[8]
  Specific activity for butyryl-CoA reduction: 8.9 ± 4.6 µmol/min/mg
[9]
  Acyl-CoA substrate favoured (highest specific activity): highest for propionyl-CoA reduction
E. coli strain JCL166
  Alcohol production from the growth rescue broth, n-butanol versus ethanol: more n-butanol than ethanol
